# Results taken from patent US8680076B2, “Methods of treatment, improvement and prevention using haloaryl substituted aminopurines” (Signal Pharmaceuticals, LLC, priority 2010, dated 2014).
# “Also recorded” adds a separate entry of the source.
# How the values were obtained:
# SKH-1 mice epidermis = assay: UVB-induced apoptosis (TUNEL) in skin of SKH-1 mice; assay type: in vivo, mouse; details: 75 mg/kg PO BID for 5 days before UVB 0.5 J/cm^2, vs vehicle
# Source text: Ultraviolet B (UVB) light is known to induce breaks in DNA (nicks) that can trigger the process of apoptosis, and these nicks can be labeled and visualized with terminal deoxynucleotidyl transferase dUTP nick end labeling (TUNEL). TUNEL technology identifies DNA breaks by labeling free 3′-OH terminals with modified (fluorescing) nucleotides in an enzymatic reaction that makes the damaged apoptotic cells fluoresce. This study was one of a series of pharmacology studies designed to determine the effects of the JNK inhibitor, Compound JNKi-1, on UVB-induced apoptosis in the skin of mice.
# Female SKH-1 mice (Charles River, n=17 total) were obtained at a body weight of 15 g to 20 g. Mice were housed in regular shoebox cages and allowed to become acclimated for a minimum of 1 week. Mice were fed Harlan Teklad (No. 7001) 4% mouse/rat diet and water ad libitum and were maintained on a 12-hour light/dark cycle. […]
# A Leica microscope with a CoolSNAP digital camera was used to obtain 5 random 20× magnification fluorescent images from five sections of skin epidermis and the number of TUNEL-positive green cells was counted to determine the average number of cells per animal and group (n=5).
# Statistical one-way analysis of variance (ANOVA) was performed followed by Bonferroni's multiple comparison test (Graph Pad Prism). The data were expressed as mean±standard error of the mean (SEM).
# CD-IGS rats = assay: Rat model of excisional wound healing; assay type: in vivo
# Description: Male CD-IGS rats (Strain code 001; n=32-52 per experiment) were obtained from Charles River Laboratories at a body weight of 175-195 g. Rats were housed in regular shoebox cages and allowed to become acclimated for a minimum of 1 week. Rats were fed Harlan Teklad (No. 7001) 4% mouse/rat diet and water ad libitum and were maintained on a 12-hour light/dark cycle.
# Suspensions of Compound JNKi-1 were prepared in aqueous 0.5% CMC and 0.25% Tween-80. The formulations were homogenized using a TEFLON® pestle and mortar (Potter-Elvehjem tissue grinder). Vehicle (aqueous solution of 0.5% carboxymethylcellulose, and 0.25% Tween-80) and test article compounds were dosed at a volume of 5 mL/kg. Groups of rats (n=4-8/group) were dosed orally with vehicle, Dexamethasone (0.5 mg/kg) or Compound JNKi-1 (10 mg/kg, 30 mg/kg or 60 mg/kg) daily throughout the study starting 4 days prior to the procedure and continuing for up to […]. Compound JNKi-1 treated groups and the respective vehicle control group were dosed twice daily (bid) with an 8 hr separation between the doses. Dexamethasone treated animals and the respective vehicle control group were dosed once daily (qd) for the duration of the study.
# Rats were anesthetized by inhaled isoflurane and the dorsal area was shaved and swabbed with 70% alcohol. Two points were marked 5.5 and 8.5 cm from the base of the skull along the midline. Four further points were marked 1 cm at either side of the midline, two at each of the marked points. These delineated the centers of four excisional wounds. The biopsy punch (6 mm diameter) was aligned vertically over the center of a mark and the epidermis, dermis and panniculus carnosus pierced by applying pressure and twisting at the same time. The skin plug was then removed. This was repeated for the remaining wounds (FIG. 15). The animal was then allowed to recover. All animals were housed singly during the experiment. Rats were monitored twice a day for the first 24 hours following the procedure and then daily until the end of the study. Body weights were recorded two or three times per week. Animals were sacrificed via CO2 asphyxiation at various time-points (day 1, 5, 10 or 14) following wounding.
# Each wound size was measured using an electronic digital caliper and the percent of wound remaining open was calculated relative to the initial wound size recorded on day 0 (day of wounding procedure). Four values were averaged for each animal (four wounds on each rat). Measurements were taken at different time-points throughout the study.
# Wounds and 2 mm of surrounding tissue were excised using an 8 mm biopsy punch. Wounds were harvested on days 1, 5, 10 and 14 following the procedure. Tissues were fixed in neutral buffered formalin for 3 h then transferred to 100% ethanol. Tissues were paraffin-embedded and four μm cross sections were cut and mounted on poly-lysine slides and stored in slide boxes at room temperature.
# One slide for each specimen was stained for H&E to assess granulation-tissue formation and re-epithelialization of the wound gap.
# Samples collected on day 10 and 14 were stained with Trichrome Stain (Masson) Kit (Sigma, HT15) to evaluate collagen deposition and remodeling.
# Tissue sections were deparaffinized and hydrated to deionized (DI) water. Sections were incubated in preheated Bouin' Solution (Sigma, HT10-132) at 56° C. overnight and then thoroughly rinsed in tap water. Sections were stained in Weigert's Iron Hematoxylin solution (Sigma, HT10-79) for 15 min, washed, and counterstained with Biebrich Scarlet Acid Fuchsin solution. After washing, sections were incubated with Phosphotungstic-Phosphomolybdic acid solution for 15 min and then stained with Aniline Blue solution. Sections were dehydrated and cleared in xylene.
# Wound healing was evaluated on day 10 and day 14 after the procedure. H&E sections were scored for re-epithelialization using the following criteria: […]
# [1] = 60 mg/kg bid, Studies A and B combined
smiles,measurement,setting,value
"O[C@H]1CC[C@H](Nc2ncc3nc(Nc4c(F)cc(F)cc4F)n([C@H]4CCOC4)c3n2)CC1 [JNKi-1, 4-((9-((3S)-tetrahydro-3-furanyl)-8-((2,4,6-trifluorophenyl)amino)-9H-purin-2-yl)amino)-trans-cyclohexanol]",number of TUNEL-positive cells in epidermis 24 hr post UV exposure,SKH-1 mice epidermis,can inhibit apoptotic cell death; also recorded: significantly (p<0.01) decreased
same,wound healing (wound size) in words,CD-IGS rats; 60 mg/kg b.i.d,delay in wound healing was observed
same,delay in wound healing,"CD-IGS rats; 60 mg/kg b.i.d, n=3 studies",27%
same,healing at day 14,CD-IGS rats; 60 mg/kg bid,fully healed
same,rats completely healed by day 10 (healing score),CD-IGS rats; [1],5 out of 14
same,rats with both incomplete re-epithelialization and collagen remodeling at day 10,CD-IGS rats; [1],3 rats
same,rats with incomplete new epidermis at day 10,CD-IGS rats; [1],two
same,rats with only partial collagen remodeling at day 10,CD-IGS rats; [1],4 rats
same,neutrophils recruited into the wounds (MPO IHC) versus controls,"CD-IGS rats; 60 mg/kg, day 1 post wounding",did not affect inflammatory cell infiltration; also recorded: comparable
same,myofibroblast migration into the wound gap (α-SMA IHC),"CD-IGS rats; 60 mg/kg, day 5 post wounding",reduced myofibroblast migration; also recorded: few myofibroblasts migrating at the wound edges
same,wound size versus vehicle,CD-IGS rats; 30 or 10 mg/kg bid,no difference
same,"healing score versus vehicle control, day 10","CD-IGS rats; Study C, 10 mg/kg",No significant effect
same,rats with both incomplete re-epithelialization and collagen remodeling,"CD-IGS rats; Study C, 30 mg/kg, day 10",5 out of 8
same,rats completely healed by day 10,"CD-IGS rats; Study C, 60 mg/kg",None
same,"healing score versus vehicle control, day 10","CD-IGS rats; Study C, 60 and 30 mg/kg",significant delay in healing
same,time of complete skin repair post wounding,CD-IGS rats; all treated groups,≤ 14 days
